Source: the supplement of paper PMC10307832

What was measured:
Assay in all cases: relative viability (nuclei count vs DMSO), 5 days (fraction); higher = more cells survive
[1] = compound: C1/C(=C\C2=CC=CS2)/C(=O)/C(=C/C3=CC=CS3)/C1 + CC(=O)Nc1cccc(-n2c(=O)n(C3CC3)c(=O)c3c(Nc4ccc(I)cc4F)n(C)c(=O)c(C)c32)c1 [Trametinib] (partner 0.02 µM)
Outline: (§1)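 For relative viability, nuclei counts in treated wells were divided by those in vehicle wells. Lung cancer cell lines had been pin-tool dosed in 1536-well plates the day after seeding and cultured for 5 days, then fixed and stained in one step (final 0.05% Triton X-100, 1% formaldehyde, 1 ug/ml Hoechst) and imaged at 4×. Doses were one drug alone or a fixed anchor-drug dose plus five library-drug doses (not always all listed) in √10 steps, and values are duplicate-plate medians.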

[2] = compound: C1/C(=C\C2=CC=CS2)/C(=O)/C(=C/C3=CC=CS3)/C1 + COc1cccc2cc(-c3nc([C@H]4CC[C@H](C(=O)O)CC4)n4ncnc(N)c34)[nH]c12 [OSI-027] (partner 0.5 µM)
Outline: as §1

[3] = compound: C[C@]12O[C@H](C[C@]1(O)CO)n1c3ccccc3c3c4c(c5c6ccccc6n2c5c31)CNC4=O [Lestaurtinib] + C[C@]1(O)C[C@@H](c2nc(-c3ccc4ccc(-c5ccccc5)nc4c3)c3c(N)nccn32)C1 [Linsitinib] (partner 1 µM)
Outline: as §1

[4] = compound: C[C@]12O[C@H](C[C@]1(O)CO)n1c3ccccc3c3c4c(c5c6ccccc6n2c5c31)CNC4=O [Lestaurtinib] + Cc1cc(Nc2cc(N3CCN(C)CC3)nc(Sc3ccc(NC(=O)C4CC4)cc3)n2)n[nH]1 [Tozasertib] (partner 0.1 µM)
Outline: as §1

NCI-H1437
relative viability ([1]; first compound 0.2 µM): 0.51
relative viability ([1]; first compound 0.6325 µM): 0.52
relative viability ([1]; first compound 2 µM): 0.442
relative viability ([1]; first compound 6.325 µM): 0.461
relative viability ([1]; first compound 20 µM): 0.428
relative viability ([2]; first compound 0.2 µM): 0.866
relative viability ([2]; first compound 0.6325 µM): 0.782
relative viability ([2]; first compound 2 µM): 0.889
relative viability ([2]; first compound 6.325 µM): 0.88
relative viability ([2]; first compound 20 µM): 0.834
relative viability ([3]; first compound 0.005 µM): 1.02
relative viability ([3]; first compound 0.01581 µM): 1.24
relative viability ([3]; first compound 0.05 µM): 0.739
relative viability ([3]; first compound 0.1581 µM): 0.775
relative viability ([3]; first compound 0.5 µM): 0.302
relative viability ([4]; first compound 0.005 µM): 0.451
relative viability ([4]; first compound 0.01581 µM): 0.438
relative viability ([4]; first compound 0.05 µM): 0.373
relative viability ([4]; first compound 0.1581 µM): 0.309
relative viability ([4]; first compound 0.5 µM): 0.408

NCI-H1651
relative viability ([1]; first compound 0.2 µM): 0.861
relative viability ([1]; first compound 0.6325 µM): 0.775
relative viability ([1]; first compound 2 µM): 0.816
relative viability ([1]; first compound 6.325 µM): 0.807
relative viability ([1]; first compound 20 µM): 0.843
relative viability ([2]; first compound 0.2 µM): 0.684
relative viability ([2]; first compound 0.6325 µM): 0.803
relative viability ([2]; first compound 2 µM): 0.815
relative viability ([2]; first compound 6.325 µM): 0.676
relative viability ([2]; first compound 20 µM): 0.789
relative viability ([3]; first compound 0.005 µM): 0.985
relative viability ([3]; first compound 0.01581 µM): 1.06
relative viability ([3]; first compound 0.05 µM): 0.969
relative viability ([3]; first compound 0.1581 µM): 0.695
relative viability ([3]; first compound 0.5 µM): 0.438
relative viability ([4]; first compound 0.005 µM): 0.706
relative viability ([4]; first compound 0.01581 µM): 0.756
relative viability ([4]; first compound 0.05 µM): 0.771
relative viability ([4]; first compound 0.1581 µM): 0.694
relative viability ([4]; first compound 0.5 µM): 0.492

NCI-H1666
relative viability ([1]; first compound 0.2 µM): 0.855
relative viability ([1]; first compound 0.6325 µM): 0.86
relative viability ([1]; first compound 2 µM): 0.791
relative viability ([1]; first compound 6.325 µM): 0.861
relative viability ([1]; first compound 20 µM): 0.77
relative viability ([2]; first compound 0.2 µM): 0.874
relative viability ([2]; first compound 0.6325 µM): 0.863
relative viability ([2]; first compound 2 µM): 0.83
relative viability ([2]; first compound 6.325 µM): 0.732
relative viability ([2]; first compound 20 µM): 0.964
relative viability ([3]; first compound 0.005 µM): 0.926
relative viability ([3]; first compound 0.01581 µM): 1.04
relative viability ([3]; first compound 0.05 µM): 0.847
relative viability ([3]; first compound 0.1581 µM): 0.475
relative viability ([3]; first compound 0.5 µM): 0.501
relative viability ([4]; first compound 0.005 µM): 0.656
relative viability ([4]; first compound 0.01581 µM): 0.663
relative viability ([4]; first compound 0.05 µM): 0.686
relative viability ([4]; first compound 0.1581 µM): 0.531
relative viability ([4]; first compound 0.5 µM): 0.373

NCI-H1734
relative viability ([1]; first compound 0.2 µM): 0.825
relative viability ([1]; first compound 0.6325 µM): 0.575
relative viability ([1]; first compound 2 µM): 0.658
relative viability ([1]; first compound 6.325 µM): 0.578
relative viability ([1]; first compound 20 µM): 0.626
relative viability ([2]; first compound 0.2 µM): 0.584
relative viability ([2]; first compound 0.6325 µM): 0.668
relative viability ([2]; first compound 2 µM): 0.741
relative viability ([2]; first compound 6.325 µM): 0.519
relative viability ([2]; first compound 20 µM): 0.593
relative viability ([3]; first compound 0.005 µM): 0.95
relative viability ([3]; first compound 0.01581 µM): 0.849
relative viability ([3]; first compound 0.05 µM): 0.477
relative viability ([3]; first compound 0.1581 µM): 0.545
relative viability ([3]; first compound 0.5 µM): 0.342
relative viability ([4]; first compound 0.005 µM): 0.289
relative viability ([4]; first compound 0.01581 µM): 0.153
relative viability ([4]; first compound 0.05 µM): 0.247
relative viability ([4]; first compound 0.1581 µM): 0.214
relative viability ([4]; first compound 0.5 µM): 0.178

NCI-H1755
relative viability ([1]; first compound 0.2 µM): 0.75
relative viability ([1]; first compound 0.6325 µM): 0.768
relative viability ([1]; first compound 2 µM): 0.794
relative viability ([1]; first compound 6.325 µM): 0.627
relative viability ([1]; first compound 20 µM): 0.714
relative viability ([2]; first compound 0.2 µM): 0.787
relative viability ([2]; first compound 0.6325 µM): 0.709
relative viability ([2]; first compound 2 µM): 0.79
relative viability ([2]; first compound 6.325 µM): 0.683
relative viability ([2]; first compound 20 µM): 0.759
relative viability ([3]; first compound 0.005 µM): 1.02
relative viability ([3]; first compound 0.01581 µM): 1.05
relative viability ([3]; first compound 0.05 µM): 0.776
relative viability ([3]; first compound 0.1581 µM): 0.429
relative viability ([3]; first compound 0.5 µM): 0.215
relative viability ([4]; first compound 0.005 µM): 0.607
relative viability ([4]; first compound 0.01581 µM): 0.693
relative viability ([4]; first compound 0.05 µM): 0.589
relative viability ([4]; first compound 0.1581 µM): 0.461
relative viability ([4]; first compound 0.5 µM): 0.372

NCI-H1793
relative viability ([1]; first compound 0.2 µM): 0.429
relative viability ([1]; first compound 0.6325 µM): 0.452
relative viability ([1]; first compound 2 µM): 0.49
relative viability ([1]; first compound 6.325 µM): 0.403
relative viability ([1]; first compound 20 µM): 0.463
relative viability ([2]; first compound 0.2 µM): 0.333
relative viability ([2]; first compound 0.6325 µM): 0.303
relative viability ([2]; first compound 2 µM): 0.322
relative viability ([2]; first compound 6.325 µM): 0.202
relative viability ([2]; first compound 20 µM): 0.31
relative viability ([3]; first compound 0.005 µM): 0.897
relative viability ([3]; first compound 0.01581 µM): 0.816
relative viability ([3]; first compound 0.05 µM): 0.467
relative viability ([3]; first compound 0.1581 µM): 0.876
relative viability ([3]; first compound 0.5 µM): 0.566
relative viability ([4]; first compound 0.005 µM): 0.335
relative viability ([4]; first compound 0.01581 µM): 0.279
relative viability ([4]; first compound 0.05 µM): 0.347
relative viability ([4]; first compound 0.1581 µM): 0.265
relative viability ([4]; first compound 0.5 µM): 0.255

NCI-H1915
relative viability ([1]; first compound 0.2 µM): 0.311
relative viability ([1]; first compound 0.6325 µM): 0.309
relative viability ([1]; first compound 2 µM): 0.315
relative viability ([1]; first compound 6.325 µM): 0.262
relative viability ([1]; first compound 20 µM): 0.322
relative viability ([2]; first compound 0.2 µM): 0.636
relative viability ([2]; first compound 0.6325 µM): 0.632
relative viability ([2]; first compound 2 µM): 0.657
relative viability ([2]; first compound 6.325 µM): 0.249
relative viability ([2]; first compound 20 µM): 0.681
relative viability ([3]; first compound 0.005 µM): 1.21
relative viability ([3]; first compound 0.01581 µM): 1.09
relative viability ([3]; first compound 0.05 µM): 1.11
relative viability ([3]; first compound 0.1581 µM): 0.797
relative viability ([3]; first compound 0.5 µM): 0.565
relative viability ([4]; first compound 0.005 µM): 0.498
relative viability ([4]; first compound 0.01581 µM): 0.532
relative viability ([4]; first compound 0.05 µM): 0.363
relative viability ([4]; first compound 0.1581 µM): 0.49
relative viability ([4]; first compound 0.5 µM): 0.214

NCI-H1944
relative viability ([1]; first compound 0.2 µM): 0.393
relative viability ([1]; first compound 0.6325 µM): 0.421
relative viability ([1]; first compound 2 µM): 0.424
relative viability ([1]; first compound 20 µM): 0.388
relative viability ([2]; first compound 0.2 µM): 0.464
relative viability ([2]; first compound 0.6325 µM): 0.409
relative viability ([2]; first compound 2 µM): 0.464
relative viability ([2]; first compound 6.325 µM): 0.408
relative viability ([2]; first compound 20 µM): 0.425
relative viability ([3]; first compound 0.005 µM): 1.14
relative viability ([3]; first compound 0.01581 µM): 1.14
relative viability ([3]; first compound 0.05 µM): 0.717
relative viability ([3]; first compound 0.1581 µM): 0.555
relative viability ([3]; first compound 0.5 µM): 0.634
relative viability ([4]; first compound 0.005 µM): 0.262
relative viability ([4]; first compound 0.01581 µM): 0.276
relative viability ([4]; first compound 0.05 µM): 0.234
relative viability ([4]; first compound 0.1581 µM): 0.236
relative viability ([4]; first compound 0.5 µM): 0.201
